Laboratory results published in patent US5395947A, “Platinum(II) complex and processes for preparing the same” (Sunkyong Industries, Ltd., priority 1991, dated 1995).

Experiments:
[1] = tested on: murine leukemia L1210 cells; assay: Growth inhibition test on cultured murine leukemia L1210 cells; type: cell-based; conditions: 48 hours, 37° C., Trypan blue viability
Outline: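 Read-out is Trypan blue (0.17%) viability versus compound-free controls. Cells, 1×10^5, were cultured 48 h at 37° C under 5% CO2 in RPMI 1640/10% FCS containing various compound concentrations.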

murine leukemia L1210 = assay: Antitumor activity test on murine leukemia L1210 in vivo; parameters: species or system male BDF1 mice; conditions: days 1, 5, 9
Outline: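 Male BDF1 mice (6 weeks, 21±3 g; n=7) received 1×10^6 leukemia cells into the peritoneum on day 0, then test compound suspended or dissolved in 0.5% CMC i.p. on days 1, 5, 9. Activity expressed as T/C %, mean survival treated versus 0.5% CMC-injected controls.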

[2] = Test for water solubility; type: physicochemical; conditions: water
Text: 3. Test for water solubility
A standard plot of UV absorbance(220 nm) vs. concentration was made; and employed to determine water-solubility.
The mixture was then passed through a 0.45 micron disposable membrane filter before dilution and UV measurement.

ICR mice = assay: Acute toxicity test; type: in vivo; parameters: Lethality: unit not given here; conditions: for Lethality: 10080 min
Outline: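 Single i.p. administration to ICR mice (7 weeks old, both sexes, n=6/group); appearance and mortality logged over 7 days, dead animals autopsied for gross pathology.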

CC1OC2C[NH2+][Pt-2]3([NH2+]CC2O1)[O]C(=O)C1(CCC1)C(=O)[O]3 [Example 22, cis-cyclobutane-1,1-dicarboxylato[(4R,5R)-4,5-bis(aminomethyl)-2-methyl-1,3-dioxolane]platinum(II)]
IC50 (concentration required for 50% inhibition of growth) [1]: 0.90 µg/mL | T/C (%) (murine leukemia L1210; 6.2 mg/kg i.p.): 125% | T/C (%) (murine leukemia L1210; 12.5 mg/kg i.p.): 129% | T/C (%) (murine leukemia L1210; 25 mg/kg i.p.): 247% | T/C (%) (murine leukemia L1210; 50 mg/kg i.p.): 262% | T/C (%) (murine leukemia L1210; 100 mg/kg i.p.): 382% | Solubility in water [2]: 24.9 mg/mL | Number of dead mice for 7 days (ICR mice; female, 94 mg/kg i.p.): 0/6 | Number of dead mice, 1st day (ICR mice; female, 94 mg/kg i.p.): 0/6 | Number of dead mice for 7 days (ICR mice; female, 123 mg/kg i.p.): 1/6 | Number of dead mice, 1st day (ICR mice; female, 123 mg/kg i.p.): 0/6 | Number of dead mice, 4th day (ICR mice; female, 123 mg/kg i.p.): 1/6 | Lethality (ICR mice; female, 123 mg/kg i.p.): 16.7 | Number of dead mice for 7 days (ICR mice; female, 160 mg/kg i.p.): 3/6 | Number of dead mice, 1st day (ICR mice; female, 160 mg/kg i.p.): 0/6 | Number of dead mice, 4th day (ICR mice; female, 160 mg/kg i.p.): 2/6 | Number of dead mice, 5th day (ICR mice; female, 160 mg/kg i.p.): 1/4 | Lethality (ICR mice; female, 160 mg/kg i.p.): 50.0 | Number of dead mice for 7 days (ICR mice; female, 208 mg/kg i.p.): 5/6 | Number of dead mice, 1st day (ICR mice; female, 208 mg/kg i.p.): 0/6 | Number of dead mice, 3rd day (ICR mice; female, 208 mg/kg i.p.): 1/6 | Number of dead mice, 4th day (ICR mice; female, 208 mg/kg i.p.): 4/5 | Lethality (ICR mice; female, 208 mg/kg i.p.): 83.3 | Number of dead mice for 7 days (ICR mice; female, 270 mg/kg i.p.): 6/6 | Number of dead mice, 1st day (ICR mice; female, 270 mg/kg i.p.): 0/6 | Number of dead mice, 2nd day (ICR mice; female, 270 mg/kg i.p.): 4/6 | Number of dead mice, 3rd day (ICR mice; female, 270 mg/kg i.p.): 2/2 | Lethality (ICR mice; female, 270 mg/kg i.p.): 100.0 | Number of dead mice for 7 days (ICR mice; male, 94 mg/kg i.p.): 0/6 | Number of dead mice, 1st day (ICR mice; male, 94 mg/kg i.p.): 0/6 | Number of dead mice for 7 days (ICR mice; male, 123 mg/kg i.p.): 0/6 | Number of dead mice, 1st day (ICR mice; male, 123 mg/kg i.p.): 0/6 | Number of dead mice for 7 days (ICR mice; male, 160 mg/kg i.p.): 4/6 | Number of dead mice, 1st day (ICR mice; male, 160 mg/kg i.p.): 1/6 | Number of dead mice, 4th day (ICR mice; male, 160 mg/kg i.p.): 1/5 | Number of dead mice, 5th day (ICR mice; male, 160 mg/kg i.p.): 1/4 | Number of dead mice, 6th day (ICR mice; male, 160 mg/kg i.p.): 1/3 | Lethality (ICR mice; male, 160 mg/kg i.p.): 66.7 | Number of dead mice for 7 days (ICR mice; male, 208 mg/kg i.p.): 5/6 | Number of dead mice, 1st day (ICR mice; male, 208 mg/kg i.p.): 0/6 | Number of dead mice, 4th day (ICR mice; male, 208 mg/kg i.p.): 4/6 | Number of dead mice, 5th day (ICR mice; male, 208 mg/kg i.p.): 1/2 | Lethality (ICR mice; male, 208 mg/kg i.p.): 83.3 | Number of dead mice for 7 days (ICR mice; male, 270 mg/kg i.p.): 6/6 | Number of dead mice, 1st day (ICR mice; male, 270 mg/kg i.p.): 0/6 | Number of dead mice, 2nd day (ICR mice; male, 270 mg/kg i.p.): 2/6 | Number of dead mice, 3rd day (ICR mice; male, 270 mg/kg i.p.): 4/4 | Lethality (ICR mice; male, 270 mg/kg i.p.): 100.0

CCC1OC2C[NH2+][Pt-2]3([NH2+]CC2O1)[O]C(=O)C1(CCC1)C(=O)[O]3 [Example 24, cis-cyclobutane-1,1-dicarboxylato[(4R,5R)-4,5-bis(aminomethyl)-2-ethyl-1,3-dioxolane]platinum(II)]
IC50 (concentration required for 50% inhibition of growth) [1]: 0.55 µg/mL | T/C (%) (murine leukemia L1210; 6.2 mg/kg i.p.): 122% | T/C (%) (murine leukemia L1210; 12.5 mg/kg i.p.): 130% | T/C (%) (murine leukemia L1210; 25 mg/kg i.p.): 193% | T/C (%) (murine leukemia L1210; 50 mg/kg i.p.): 208% | T/C (%) (murine leukemia L1210; 100 mg/kg i.p.): 391% | Solubility in water [2]: 12.0 mg/mL | Number of dead mice for 7 days (ICR mice; female, 160 mg/kg i.p.): 0/6 | Number of dead mice, 1st day (ICR mice; female, 160 mg/kg i.p.): 0/6 | Number of dead mice for 7 days (ICR mice; female, 208 mg/kg i.p.): 0/6 | Number of dead mice, 1st day (ICR mice; female, 208 mg/kg i.p.): 0/6 | Number of dead mice for 7 days (ICR mice; female, 270 mg/kg i.p.): 3/6 | Number of dead mice, 1st day (ICR mice; female, 270 mg/kg i.p.): 0/6 | Number of dead mice, 2nd day (ICR mice; female, 270 mg/kg i.p.): 1/6 | Number of dead mice, 3rd day (ICR mice; female, 270 mg/kg i.p.): 1/5 | Number of dead mice, 5th day (ICR mice; female, 270 mg/kg i.p.): 1/4 | Lethality (ICR mice; female, 270 mg/kg i.p.): 50.0 | Number of dead mice for 7 days (ICR mice; female, 352 mg/kg i.p.): 5/6 | Number of dead mice, 1st day (ICR mice; female, 352 mg/kg i.p.): 0/6 | Number of dead mice, 3rd day (ICR mice; female, 352 mg/kg i.p.): 3/6 | Number of dead mice, 4th day (ICR mice; female, 352 mg/kg i.p.): 2/3 | Lethality (ICR mice; female, 352 mg/kg i.p.): 83.3 | Number of dead mice for 7 days (ICR mice; female, 457 mg/kg i.p.): 6/6 | Number of dead mice, 1st day (ICR mice; female, 457 mg/kg i.p.): 0/6 | Number of dead mice, 2nd day (ICR mice; female, 457 mg/kg i.p.): 4/6 | Number of dead mice, 3rd day (ICR mice; female, 457 mg/kg i.p.): 2/2 | Lethality (ICR mice; female, 457 mg/kg i.p.): 100.0 | Number of dead mice for 7 days (ICR mice; male, 160 mg/kg i.p.): 0/6 | Number of dead mice, 1st day (ICR mice; male, 160 mg/kg i.p.): 0/6 | Number of dead mice for 7 days (ICR mice; male, 208 mg/kg i.p.): 1/6 | Number of dead mice, 1st day (ICR mice; male, 208 mg/kg i.p.): 0/6 | Number of dead mice, 3rd day (ICR mice; male, 208 mg/kg i.p.): 1/6 | Lethality (ICR mice; male, 208 mg/kg i.p.): 16.7 | Number of dead mice for 7 days (ICR mice; male, 270 mg/kg i.p.): 5/6 | Number of dead mice, 1st day (ICR mice; male, 270 mg/kg i.p.): 0/6 | Number of dead mice, 2nd day (ICR mice; male, 270 mg/kg i.p.): 1/6 | Number of dead mice, 3rd day (ICR mice; male, 270 mg/kg i.p.): 2/5 | Number of dead mice, 4th day (ICR mice; male, 270 mg/kg i.p.): 1/3 | Number of dead mice, 5th day (ICR mice; male, 270 mg/kg i.p.): 1/2 | Lethality (ICR mice; male, 270 mg/kg i.p.): 83.3 | Number of dead mice for 7 days (ICR mice; male, 352 mg/kg i.p.): 6/6 | Number of dead mice, 1st day (ICR mice; male, 352 mg/kg i.p.): 1/6 | Number of dead mice, 2nd day (ICR mice; male, 352 mg/kg i.p.): 2/5 | Number of dead mice, 3rd day (ICR mice; male, 352 mg/kg i.p.): 2/3 | Number of dead mice, 6th day (ICR mice; male, 352 mg/kg i.p.): 1/1 | Lethality (ICR mice; male, 352 mg/kg i.p.): 100.0 | Number of dead mice for 7 days (ICR mice; male, 457 mg/kg i.p.): 6/6 | Number of dead mice, 1st day (ICR mice; male, 457 mg/kg i.p.): 0/6 | Number of dead mice, 2nd day (ICR mice; male, 457 mg/kg i.p.): 2/6 | Number of dead mice, 3rd day (ICR mice; male, 457 mg/kg i.p.): 4/6 | Lethality (ICR mice; male, 457 mg/kg i.p.): 100.0
